From the OligoGym collection
Bases are written 5' to 3'; sugars and linkages follow in the same order, as letters with counts (s phosphorothioate, o phosphodiester; PS: all linkages phosphorothioate). The collection does not say whether C is 5-methylated. l = locked nucleic acid (LNA); d = 2'-deoxy (DNA)

biological target: Tau; test: rat primary cortical neurons, FLIPR, 25 uM ASO

Row | Sequence | calcium oscillation score
1 | AAAAAGTCCATTCCCTC (sugars l3 d10 l4, PS) | 64 % of control
2 | AAAACATTCTCACCAAACCC (sugars l4 d14 l2, PS) | 83.5 % of control
3 | AAAAGTCCATTCCCTCC (sugars l2 d12 l3, PS) | 64 % of control
4 | AAAATACTCCTCCCTTA (sugars l3 d10 l4, PS) | 67.1 % of control
5 | AAAATATCCTTACCATCC (sugars l4 d10 l4, PS) | 70.2 % of control
6 | AAAATATCCTTACCATCCT (sugars l2 d13 l4, PS) | 73.9 % of control
7 | AAAATATCCTTACCATCCTA (sugars l3 d14 l3, PS) | 75.5 % of control
8 | AAAATCCTTAATTTAACCAC (sugars l4 d12 l4, PS) | 64 % of control
9 | AAACAGGATACAGT (sugars l3 d8 l3, PS) | 109 % of control
10 | AAACATCTAAACACCTCAAT (sugars l4 d12 l4, PS) | 78.9 % of control
11 | AAACCAACTCAACATTACCC (sugars l3 d15 l2, PS) | 94.3 % of control
12 | AAACCATGATCTTAGG (sugars l3 d10 l3, PS) | 81.3 % of control
13 | AAACTCATTTACCAATTAT (sugars l4 d11 l4, PS) | 70.7 % of control
14 | AAACTCATTTACCAATTATC (sugars l4 d12 l4, PS) | 56.8 % of control
15 | AAACTTTTACTCTGACT (sugars l4 d9 l4, PS) | 59.4 % of control
16 | AAAGATGAAATTTGCTCTTA (sugars l3 d14 l3, PS) | 145 % of control
17 | AAAGCAGGTTAAGTGATTAA (sugars l3 d14 l3, PS) | 2.59 % of control
18 | AAAGTACTATCCACTT (sugars l4 d8 l4, PS) | 79.1 % of control
19 | AAATATCCTTACCATCCTAT (sugars l2 d15 l3, PS) | 78.8 % of control
20 | AAATCAATTCTCATTTCAAC (sugars l4 d12 l4, PS) | 58.2 % of control
21 | AAATCCCTCTACTCCAG (sugars l2 d12 l3, PS) | 51.4 % of control
22 | AAATCCTTAATTTAACCACA (sugars l4 d12 l4, PS) | 63.1 % of control

Row | Sequence | calcium oscillation score
23 | AACAAACAAAAATCCCCTA (sugars l4 d11 l4, PS) | 85.7 % of control
24 | AACAAACATCTAAACACCTC (sugars l3 d13 l4, PS) | 75.1 % of control
25 | AACACCTTTTAATTCATT (sugars l4 d10 l4, PS) | 74.8 % of control
26 | AACAGGAGAGCCATTTCCCA (sugars l3 d14 l3, PS) | 57.1 % of control
27 | AACATATATATTACACTTC (sugars l4 d11 l4, PS) | 111 % of control
28 | AACATCACCAGCCTTC (sugars l3 d9 l4, PS) | 50.7 % of control
29 | AACATCATGTCACACA (sugars l4 d8 l4, PS) | 56.3 % of control
30 | AACATCATGTCACACAC (sugars l4 d9 l4, PS) | 39 % of control
31 | AACATCTAAACACCTCAA (sugars l4 d10 l4, PS) | 78.9 % of control
32 | AACATCTAAACACCTCAATC (sugars l4 d12 l4, PS) | 77.6 % of control
33 | AACATTCTCACCAAACCCA (sugars l3 d14 l2, PS) | 78.4 % of control
34 | AACCAACTCAACATTACCCT (sugars l2 d16 l2, PS) | 86.7 % of control
35 | AACCAACTTTCATCTACT (sugars l4 d11 l3, PS) | 73.5 % of control
36 | AACCAACTTTCATCTACTTT (sugars l4 d14 l2, PS) | 63 % of control
37 | AACCAATTAACCGAAC (sugars l3 d10 l3, PS) | 138 % of control
38 | AACCAATTAACCGAACTGCG (sugars l3 d14 l3, PS) | 18.1 % of control
39 | AACCACTCTAACATCTT (sugars l4 d9 l4, PS) | 88.3 % of control
40 | AACCACTCTAACATCTTA (sugars l4 d11 l3, PS) | 86.8 % of control
41 | AACCACTCTTATTCTTTAA (sugars l4 d11 l4, PS) | 77.1 % of control
42 | AACCACTCTTATTCTTTAAA (sugars l4 d12 l4, PS) | 91.3 % of control
43 | AACCAGCTAGTGGTGCCACC (sugars l3 d14 l3, PS) | 33 % of control
44 | AACCATTAACTGCCTAT (sugars l4 d10 l3, PS) | 53 % of control

Row | Sequence | calcium oscillation score
45 | AACCCCATAGACATAA (sugars l4 d8 l4, PS) | 78.6 % of control
46 | AACCCCTTCAACATCAGC (sugars l2 d12 l4, PS) | 64.9 % of control
47 | AACCGTTTTCTTACCAC (sugars l2 d11 l4, PS) | 60.1 % of control
48 | AACGCACCAGGAACCTTCCA (sugars l3 d14 l3, PS) | 51.4 % of control
49 | AACTAAATTTACCTCA (sugars l4 d8 l4, PS) | 88.1 % of control
50 | AACTCAAATCAATTCTCATT (sugars l4 d12 l4, PS) | 73.2 % of control
51 | AACTCATCAACACCTTTTAA (sugars l3 d13 l4, PS) | 70.8 % of control
52 | AACTCATTTACCAATTATCT (sugars l4 d13 l3, PS) | 67.3 % of control
53 | AACTCTAAGTAGACCCTGGC (sugars l3 d14 l3, PS) | 14.3 % of control
54 | AACTGATTCCATCACCA (sugars l3 d11 l3, PS) | 69.7 % of control
55 | AACTGCGAGGAGCAGC (sugars l3 d10 l3, PS) | 25.9 % of control
56 | AACTGGTTAGCCCTAA (sugars l3 d10 l3, PS) | 31.3 % of control
57 | AACTGGTTTGTAGACT (sugars l3 d10 l3, PS) | 0 % of control
58 | AACTGGTTTGTAGACTATTT (sugars l3 d14 l3, PS) | 0 % of control
59 | AACTTACCAGTTTTTCA (sugars l4 d9 l4, PS) | 62.3 % of control
60 | AACTTCTAATTTAGTC (sugars l4 d8 l4, PS) | 81.9 % of control
61 | AACTTCTAGTTATACAGTTG (sugars l3 d14 l3, PS) | 26.2 % of control
62 | AACTTTTACTCTGACTA (sugars l4 d9 l4, PS) | 51.9 % of control
63 | AAGACCAAGCAGAGATAAAC (sugars l3 d14 l3, PS) | 16.7 % of control
64 | AAGAGGCACAAGTCCT (sugars l3 d10 l3, PS) | 81.6 % of control
65 | AAGAGGGCAGCAGGCC (sugars l3 d10 l3, PS) | 73.1 % of control
66 | AAGAGTCACTGCACTGCATT (sugars l3 d14 l3, PS) | 30.9 % of control

Row | Sequence | calcium oscillation score
67 | AAGATACATGCGTCCT (sugars l3 d10 l3, PS) | 112 % of control
68 | AAGATGAAATTTGCTC (sugars l3 d10 l3, PS) | ≥ 200 % of control
69 | AAGCAATAGCAAACA (sugars l3 d9 l3, PS) | 142 % of control
70 | AAGCAGGTTAAGTGATTAAC (sugars l3 d14 l3, PS) | 12.9 % of control
71 | AAGCATTTCAAGATAC (sugars l3 d10 l3, PS) | 66.7 % of control
72 | AAGCCCATTTACAATTC (sugars l4 d10 l3, PS) | 81.1 % of control
73 | AAGCTTCCACATTTTAC (sugars l4 d10 l3, PS) | 68.4 % of control
74 | AAGGTCAGCTTGTGGG (sugars l3 d10 l3, PS) | 11.4 % of control
75 | AAGTCCCGAGCCAAA (sugars l3 d9 l3, PS) | 102 % of control
76 | AAGTCCCGAGCCAAAG (sugars l3 d10 l3, PS) | 91.8 % of control
77 | AAGTCCCGAGCCAAAGCCGA (sugars l3 d14 l3, PS) | 0 % of control
78 | AAGTGATTAACCAATTAACC (sugars l3 d14 l3, PS) | 57 % of control
79 | AATAACATTAACCCTT (sugars l4 d8 l4, PS) | 72 % of control
80 | AATAAGAAAGGAACGC (sugars l3 d9 l4, PS) | 85.7 % of control
81 | AATAAGAAAGGAACGC (sugars l3 d10 l3, PS) | 110 % of control
82 | AATAAGAAAGGAACGC (sugars l4 d7 l5, PS) | 97.6 % of control
83 | AATAAGAAAGGAACGC (sugars l4 d8 l4, PS) | 5.95 % of control
84 | AATAAGAAAGGAACGC (sugars l4 d9 l3, PS) | 102 % of control
85 | AATAAGAAAGGAACGC (sugars l5 d6 l5, PS) | 113 % of control
86 | AATAAGAAAGGAACGC (sugars l5 d7 l4, PS) | 121 % of control
87 | AATACAAACAGCCTCCC (sugars l2 d12 l3, PS) | 61.6 % of control
88 | AATACATCAATAGAAGGCAA (sugars l3 d14 l3, PS) | 16.1 % of control

Row | Sequence | calcium oscillation score
89 | AATAGATCTTTCCCCTCC (sugars l2 d13 l3, PS) | 76.7 % of control
90 | AATAGCAAACAGGAT (sugars l3 d9 l3, PS) | 3.83 % of control
91 | AATAGCAAACAGGATA (sugars l3 d10 l3, PS) | 82.4 % of control
92 | AATATCCTTACCATCCTATC (sugars l2 d14 l4, PS) | 59.1 % of control
93 | AATATTACACCATCCA (sugars l4 d8 l4, PS) | 101 % of control
94 | AATATTACACCATCCAA (sugars l4 d9 l4, PS) | 95.7 % of control
95 | AATATTACATCAGTCT (sugars l4 d8 l4, PS) | 34.6 % of control
96 | AATCAATTCTCATTTCAACC (sugars l4 d13 l3, PS) | 63.9 % of control
97 | AATCCATTTATATTCTTTTA (sugars l4 d12 l4, PS) | 38.5 % of control
98 | AATCCCAGTTTCCCCCA (sugars l4 d11 l2, PS) | 65.6 % of control
99 | AATCCTGTGCTTCA (sugars l3 d8 l3, PS) | 9.58 % of control
100 | AATCCTGTGCTTCAG (sugars l3 d9 l3, PS) | 57.5 % of control
101 | AATCCTGTGCTTCAGG (sugars l3 d10 l3, PS) | 73 % of control
102 | AATCCTTAATTTAACCACAT (sugars l4 d13 l3, PS) | 56.8 % of control
103 | AATGTCCAAAAATCCCC (sugars l2 d11 l4, PS) | 53 % of control
104 | AATTAAATTTCTCCCTG (sugars l4 d9 l4, PS) | 34.1 % of control
105 | AATTAACATATTTTTACCT (sugars l4 d11 l4, PS) | 75.1 % of control
106 | AATTAACCGAACTGCG (sugars l3 d10 l3, PS) | 186 % of control
107 | AATTAGTCACATACCA (sugars l4 d8 l4, PS) | 85 % of control
108 | AATTATTAAATCTTCTCTTA (sugars l4 d12 l4, PS) | 62.6 % of control
109 | AATTATTTACACTGTCC (sugars l4 d9 l4, PS) | 55.6 % of control
